According to patent publication US8945540B2, “Compositions for enhancing the antibacterial activity of myeloperoxidase and methods of use thereof” (Exoxemis, Inc., priority 2008, dated 2015):

Key:
Format in all cases: cell-based
Staphylococcus aureus [1] = assay: Microbicidal activity of the myeloperoxidase system (p-MPO, glucose oxidase, glucose) with amino acids in the presence of blood, CFU plate counts; synergy determination from these CFU; conditions: for Average Viability CFU/ml 50 min / Log Reduction 50 min: single amino acid 2.5 mM, MPO 4.7 U/ml, GO 4.2 U/ml
Summary of the method: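 Staphylococcus aureus grown 24 hours in TSB at 35° C was washed in saline and added at a final 2-3×10^7 CFU per mL. The bacteria were mixed in 1 mL reactions with porcine myeloperoxidase, glucose oxidase, amino acids, 150 mM sodium chloride and 3% venous whole blood. Adding glucose to 150 mM started killing. After catalase addition, survivors were counted by serial dilution plating on TSA at 37° C for 24 hours.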

Staphylococcus aureus [2] = assay: Control: microbicidal activity of the amino acid or analogue alone (no glucose, MPO, glucose oxidase) in the presence of blood; conditions: amino acid alone 5 mM, MPO 0, GO 0, no glucose, blood, without replication
Description: As a control to determine the microbicidal activity of the amino acids alone, the foregoing procedure was followed without replication, except in the absence of glucose, MPO, and glucose oxidase.

Bacillus subtilis spores = assay: Myeloperoxidase system with beta alanine and L-alanine against spores in the presence of blood; conditions: 2 hours, MPO 25 μg/mL (9.4 U/mL), GO 8.3 U/mL
Description: The effect of a two-way combination of beta alanine and L-alanine, as potential enhancing agents, for MPO microbicidal action against Bacillus subtilis spores in the presence of blood, was determined following the procedure of Example 2. However, in this case each test contained a single low concentration of MPO (25 μg/mL or 9.4 U/mL) and glucose oxidase (8.3 U/mL). […] The effect of both L-alanine and beta alanine alone on the myeloperoxidase antimicrobial activity against Bacillus subtilis spores was tested for comparison.
The nature of the relationship between beta alanine and L-alanine was examined following the synergy determination method described above.

Candida albicans = assay: Myeloperoxidase system with amino acids in the presence of blood (Example 9); conditions: MPO 25 μg/mL, GO 8.3 U/mL, L-valine/glycine 2.5 μmol/mL each, beta alanine 5 μmol/mL
Description: (§1) The effect of two way combinations of amino acids glycine and valine, and individually beta alanine, as potential enhancing agents for MPO microbicidal action against Pseudomonas aeruginosa, Staphylococcus aureus and Candida albicans, in the presence of blood, was determined following the procedure of Example 2. Each organism was tested against a single low concentration of MPO (25 μg/mL or 9.4 U/mL) and glucose oxidase (8.3 U/mL). The two amino acid activators were each added at a final concentration of 2.5 μmol/mL and the individual amino acid, beta alanine, was tested at a single concentration of 5 μmol/mL. The effect of no amino acid containing formulations on the myeloperoxidase antimicrobial activity against these organisms was tested for comparison.

Pseudomonas aeruginosa = assay: as above; conditions: 60 minutes, MPO 25 μg/mL, GO 8.3 U/mL, L-valine/glycine 2.5 μmol/mL each, beta alanine 5 mM
Description: as §1

[3] = MPO 100 μg/mL, AA 20 mM, 30 min
[4] = MPO 100 μg/mL, AA 20 mM, 60 min
[5] = Table 4, amino acid 5 mM (none: 0 mM), MPO 38 U/ml, GO 33.3 U/ml, blood
[6] = Table 14, in the presence of blood, 50 min
[7] = Table 2, amino acid 5 mM (none: 0 mM), MPO 38 U/ml, GO 33.3 U/ml, blood
[8] = Table 10, in the presence of blood, 50 min
[9] = Table 13, in the presence of blood, 50 min

SMILES	Log 10 (CFU + 1) Survivors (Staphylococcus aureus [1]; MPO 25 μg/mL, AA 5 mM, 30 min)	Log 10 (CFU + 1) Survivors (Staphylococcus aureus [1]; MPO 25 μg/mL, AA 5 mM, 60 min)	Log 10 (CFU + 1) Survivors (Staphylococcus aureus [1]; MPO 25 μg/mL, AA […], 30 min)	Log 10 (CFU + 1) Survivors (Staphylococcus aureus [1]; MPO 25 μg/mL, AA […], 60 min)	Log 10 (CFU + 1) Survivors (Staphylococcus aureus [1]; MPO 100 μg/mL, AA 5 mM, 30 min)	Log 10 (CFU + 1) Survivors (Staphylococcus aureus [1]; MPO 100 μg/mL, AA 5 mM, 60 min)	Log 10 (CFU + 1) Survivors (Staphylococcus aureus [1]; [3])	Log 10 (CFU + 1) Survivors (Staphylococcus aureus [1]; [4])	Average Viability CFU/ml 50 min (Staphylococcus aureus [1]; [6]) [CFU/ml]	Log Reduction 50 min (Staphylococcus aureus [1]; [6])	Average Viability CFU/ml 60 min (Staphylococcus aureus [2]) [CFU/ml]	CFU survivors (Bacillus subtilis spores) [CFU]	also measured
NCCC(=O)O [Beta alanine]	0.0	0.0	0.0	0.0	0.0	0.0	0.0	0.0	6000000	0.7	25500000	3100000	Average Viability CFU/ml 60 min (Staphylococcus aureus [1]; [5]): 0 CFU/ml; Log Reduction 60 min (Staphylococcus aureus [1]; [5]): 7.4; Average Viability CFU/ml 50 min (Staphylococcus aureus [1]; blood): 505000 CFU/ml; Log Reduction 50 min (Staphylococcus aureus [1]; blood): 1.7; increased performance over the MPO system without amino acids (Staphylococcus aureus [1]; within 30 minutes, MPO 25 μg/mL, GO 8.3 U/mL, blood, 5 μmol/mL): 6.8 logs; kill of S. aureus (in words) (Staphylococcus aureus [1]; within 60 minutes, lower concentrations of amino acid and MPO, blood): complete kill; Log Reduction 60 min (Staphylococcus aureus [2]): 0.0; improvement in microbicidal activity over the MPO system without amino acids (Candida albicans): 1.9 logs; enhancing effect over the MPO system without amino acids (Pseudomonas aeruginosa): 4.6 logs
C[C@H](N)C(=O)O [L-Alanine]	6.9	4.1	7.0	4.7	5.1	0.0	6.1	0.0	2215000	1.1	24100000	520000	Average Viability CFU/ml 60 min (Staphylococcus aureus [1]; [7]): 7 CFU/ml; Log 10 (CFU + 1) Survivors 60 min (Staphylococcus aureus [1]; [7]): 0.9; Log Reduction 60 min (Staphylococcus aureus [1]; [7]): 6.5; Average Viability CFU/ml 50 min (Staphylococcus aureus [1]; [8]): 9750000 CFU/ml; Log Reduction 50 min (Staphylococcus aureus [1]; [8]): 0.4; Average Viability CFU/ml 50 min (Staphylococcus aureus [1]; [9]): 2230000 CFU/ml; Log Reduction 50 min (Staphylococcus aureus [1]; [9]): 1.0; log reduction at 5000 µM (Staphylococcus aureus [2]; Staphylococcus aureus, 1 h, read-out: Log Reduction 60 min): 0; log reduction (Bacillus subtilis spores): 1.5 log
